The results in this text go back to patent US5234932A, “Substituted quinolines and leucotriene antagonism treatment therewith” (Leo Pharmaceutical Products ltd., priority 1989, dated 1993).

The target of experiment [1] is T1, guinea-pig tracheal strips (LTD4) (Cavia porcellus, UniProt Q2NNR5).
T1 construct: from tissue; host or cells: guinea-pig tracheal strips
T1 sequence (Q2NNR5 1-340): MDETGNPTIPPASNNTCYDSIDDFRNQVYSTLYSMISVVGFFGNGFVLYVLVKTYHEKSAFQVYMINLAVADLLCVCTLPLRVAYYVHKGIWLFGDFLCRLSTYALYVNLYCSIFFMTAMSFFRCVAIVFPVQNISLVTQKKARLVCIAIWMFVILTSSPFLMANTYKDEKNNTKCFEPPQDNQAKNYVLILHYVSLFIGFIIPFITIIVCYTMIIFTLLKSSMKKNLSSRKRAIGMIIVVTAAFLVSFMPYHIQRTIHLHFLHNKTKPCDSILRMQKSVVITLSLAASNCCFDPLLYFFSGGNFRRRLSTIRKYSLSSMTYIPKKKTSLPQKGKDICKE
The experiment in a line: leukotriene antagonism on guinea-pig tracheal strips (LTD4 concentration-response). Format: cell-based. The following applies: negative logarithm of the antagonist dissociation constant, -log([antagonist]/(dose ratio -1)), indomethacin present. From the text:
Leukotriene antagonists may be further characterized using guinea-pig tracheal strips instead of ileum strips (10). In this relevant in vitro model of human airways (11) tracheal strips are suspended in a physiological buffer containing indomethacin. A concentration-response curve to LTD4 is generated in the presence and absence of the leukotriene antagonists. From these curves the potency of a leukotriene antagonist may be expressed as the pKB value, the negative logarithm of the antagonist dissociation constant. The pKB value is determined as -log([antagonist]/(dose ratio -1)), where the dose ratio is defined as EC50 (presence of antagonist)/EC50 (absence of antagonist) and EC50 refers to the concentration of LTD4 eliciting 50% of the maximum response to LTD4 (12).

A further experiment deals with T2, LTD4 receptor (Cavia porcellus, UniProt Q2NNR5).
T2 construct: from tissue; host or cells: guinea-pig lung membranes
T2 sequence (Q2NNR5 1-340): T1 sequence (Q2NNR5 1-340)
The experiment in a line: [3H]LTD4 receptor binding, guinea-pig lung membranes, direct competition assay. The following applies: negative logarithm of the molar concentration inhibiting [3H]LTD4 binding by 50%. From the text: It is of importance to investigate the receptor binding properties of leukotriene antagonists in relation to their pKB values (13), i.e. to correlate antagonist receptor blocking with inhibition of smooth muscle contraction. Receptor binding studies may be performed with guinea-pig lung membranes in a direct competition assay between a leukotriene antagonist and [^3 H]LTD4 for binding to the LTD4 receptor (10,13).

Experiment [2] deals with guinea-pig ileum strips (LTD4). Briefly: inhibition of LTD4-induced contraction of guinea-pig ileum strips. The following applies: LTD4 at 10^-9 M; compound added 2 minutes prior; atropine and indomethacin present. The class given is cell-based. How it is done:
Leukotriene antagonists may be identified by observing the contractions elicited in preparations of guinea-pig ileum strips suspended in a physiological buffer by addition of pure leukotriene D4 (LTD4) (10). The ileum strips are connected to an isotonic transducer, and the contractions are continuously recorded on a multichannel recorder. Before addition of LTD4, atropine and indomethacin are added to the buffer in order to block any cholinergic or prostaglandin mediated contractile effects. Test compounds to be studied with respect to leukotriene antagonism are dissolved in DMSO and added to the organ bath 2 minutes prior to addition of LTD4 at 10^-9 M (final concentration), the final concentration of DMSO being 0.1%, a concentration which can be shown not to affect the ileum response to LTD4. The test compounds may be added at various concentrations, often beginning at […] and then decreasing the concentration in case of antagonism.
When the compounds of the present invention were added to the ileum preparation before addition of LTD4 a significant inhibition occurred of the specific LTD4 -induced contraction. […] On other hand, contractions induced with histamine at 10^-7 M were not inhibited by these compounds even at micromolar concentrations.

A further experiment has as its system cyclooxygenase. The experiment in a line: synthesis of cyclooxygenase products in A23187-stimulated rat peritoneal cells. Format: cell-based. The following applies: final concentration of 10^-6 M. The method, then:
(§1) The following method was used to assay 5-lipoxygenase activity in vitro: Rat peritoneal cells were harvested by i.p. injection of 10 ml Hank's balanced salt solution (GIBCO, cat No. 4025, U.S.A.) containing 12.5 U/ml sodium heparin (Leo, Denmark) in anaesthesized rats. The resulting cell suspension, which mainly contained macrophages, was transferred to a test tube and washed twice by centrifugation (200 g, 10 min.) and resuspended in Hank's balanced salt solution containing 0.5% bovine serum albumin (BSA) (Sigma Chem. Co., U.S.A.). The cells from 9 rats were finally resuspended in Hank's balanced salt solution (with BSA) containing 5μCi [1-^14 C]arachidonic acid (The Radiochemical Centre, Amersham, U.K.) and incubated for 90 minutes at 37° C. This caused labelling of cell membrane phospholipids as radioactive arachidonic acid was incorporated in the 2-position of the glycerol moiety. Excess arachidonic acid was then removed by washing the cells twice as described above. The cells were finally resuspended in the same solution (without BSA) at 10^7 cells/ml. 475 μl of the cell suspension was preincubated at 37° C. for 5 minutes with either 5 μl dimethylsalphoxide (DMSO) (control tube), or 5 μl of a drug solution in DMSO. Then 20 μl of a mixture of equal volumes of the calcium ionophore A23187, 10^-4 M in ethanol (Calbiochem, U.S.A.), and 0.4M CaCl2 in water was added. The final concentration of A23187 was thus 2×10^-6 M, and of Ca^++ 8 mM. After 5 minutes of incubation the tubes were transferred to an ice-bath and centrifuged for 10 minutes at 3,000 g (4° C.). An aliquot of the supernatant was counted by liquid scintillation spectrometry in order to calculate the total radioactive release induced by A23187 in presence of drugs. A decrease in radioactive release was taken as indication of phospholipase A2 inhibition. The supernatant was then extracted with ethyl acetate (2 ml), adjusted to pH 3 with 1N HCl and further extracted with 2 ml ethyl acetate. The combined extracts were evaporated to dryness in vacuo, the residue was redissolved in a small volume of methanol and applied by means of a Desaga Autospotter™ to a silica-gel coated thin-layer plate fitted with a polar concentrating zone (Merck Art. 11798, Darmstadt, F.R.G.). The plates were developed in the organic layer of the solvent mixture ethyl acetate/acetic acid/iso-octane/water (55:10:25:50). Radioactive spots were detected by autoradiography (AGFA-GEVAERT, Osray-RPI X-ray film, Belgium), and changes induced by drugs in the metabolic pattern of arachidonic acid were quantified by a laser densitometer (LKB, Ultroscan ™2202, Bromma, Sweden) in combination with an integrating computer (SP 4100, Spectra-Physics, San Jose, Calif., U.S.A.).
These cells produced measurable amounts of radioactive 6-keto-prostaglandinF1α, thromboxane B2, prostaglandin D2, hydroxyheptadecatrienoic acid (HHT) (all cyclooxygenase products), 5-hydroxyeicosatetraenoic acid (5-HETE) and leukotriene B4 (both 5-lipoxygenase products).
At the same time, a decrease in synthesis of the cyclooxygenase products HHT, prostaglandin D2, thromboxane B2 and 6-ketoprostaglandin F1α was not observed. This pattern of drug activity is indicative of truly specific 5-lipoxygenase inhibition.

For another experiment, the target named is T3, 5-lipoxygenase (Rattus norvegicus, UniProt P12527).
T3 construct: LTB4 and 5-HETE measured by TLC
T3 sequence (P12527 1-673): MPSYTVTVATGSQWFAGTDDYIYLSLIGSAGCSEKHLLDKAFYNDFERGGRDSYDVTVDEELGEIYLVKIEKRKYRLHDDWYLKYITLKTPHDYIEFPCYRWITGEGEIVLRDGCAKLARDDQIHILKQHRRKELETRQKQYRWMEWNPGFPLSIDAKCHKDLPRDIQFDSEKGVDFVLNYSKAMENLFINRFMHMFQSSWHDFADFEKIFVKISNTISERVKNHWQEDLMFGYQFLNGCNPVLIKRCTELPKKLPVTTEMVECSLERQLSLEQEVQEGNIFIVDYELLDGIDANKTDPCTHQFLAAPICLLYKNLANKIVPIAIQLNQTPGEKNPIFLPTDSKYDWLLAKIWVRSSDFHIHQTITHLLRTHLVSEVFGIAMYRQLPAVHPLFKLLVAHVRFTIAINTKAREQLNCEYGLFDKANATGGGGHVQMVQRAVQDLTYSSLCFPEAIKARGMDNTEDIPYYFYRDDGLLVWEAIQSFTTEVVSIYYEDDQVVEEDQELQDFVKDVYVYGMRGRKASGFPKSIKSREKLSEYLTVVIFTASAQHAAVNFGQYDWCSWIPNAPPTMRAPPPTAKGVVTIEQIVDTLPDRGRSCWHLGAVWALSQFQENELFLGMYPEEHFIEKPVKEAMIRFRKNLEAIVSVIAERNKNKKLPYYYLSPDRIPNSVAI
The experiment in a line: 5-lipoxygenase activity in vitro (A23187-stimulated rat peritoneal cells, leukotriene B4 and 5-HETE production). The following applies: final concentration of 10^-6 M; A23187 2×10^-6 M. The class given is cell-based. How it is done: as §1, with “Calif., U.S.A.). […]” for “Calif., U.S.A.).”

Structures can show the parent of a compound that is named as a salt.

Usually Kb stands for the equilibrium dissociation constant of an antagonist, usually derived from a functional assay. The IC50 is the point on the concentration scale where inhibition reaches its midpoint. Read a high IC50 as weaker potency in that assay. Take `O=C(O)C(Nc1cccc(OCc2ccc3ccccc3n2)c1)c1ccccc1` (racemic) [Example 15, (S,R)-2-[3-(2-Quinolylmethyloxy)-anilino]-2-phenyl acetic acid]: the antagonist equilibrium constant (Kb) in experiment [1] is 1 nM. The compound further gave a half-maximal inhibitory concentration (IC50) at LTD4 receptor of 15.8 nM.

As to `O=C(O)C(Nc1ccc(OCc2ccc3ccccc3n2)cc1)c1ccccc1` (racemic) [Example 17, (S,R)-2-[4-(2-Quinolylmethyloxy)-anilino]-2-phenyl acetic acid], the “concentrations at which inhibition of LTD4-induced contraction occurred” value in experiment [2] is reported as “submicromolar range”.

Consider `O=C(O)[C@H](O)[C@H](Nc1cccc(OCc2ccc3ccccc3n2)c1)c1ccccc1` (relative stereo) [Example 1, (2R,3R;2S,3S)-3-[3-(2-Quinolylmethoxy)-anilino]-2-hydroxy-3-phenyl propionic acid, sodium salt], for which the Kb in experiment [1] is 0.2 nM. Besides, the IC50 on LTD4 receptor was 2.51 nM.

For the compound `CCOC(=O)[C@H](O)[C@H](Nc1cccc(OCc2ccc3ccccc3n2)c1)c1cccc(Cl)c1` (relative stereo) [Example 9], in the experiment with cyclooxygenase, the “decrease in synthesis of the cyclooxygenase product 6-ketoprostaglandin F1α” value is recorded as “not observed”, the “decrease in synthesis of the cyclooxygenase product HHT” value was “not observed”, the “decrease in synthesis of the cyclooxygenase product prostaglandin D2” value is “not observed” and the “decrease in synthesis of the cyclooxygenase product thromboxane B2” value is reported as “not observed”. At 5-lipoxygenase, the “decrease in the production of 5-HETE” value is “significant and specific decrease”; the “decrease in the production of leukotriene B4” value was “significant and specific decrease”.

Regarding `CCOC(=O)[C@H](O)[C@H](Nc1ccc(OCc2ccc3ccccc3n2)cc1)c1ccccc1` (relative stereo) [Example 11, (2S,3R;2S,3S)-3-[4-(2-Quinolylmethyloxy)-anilino]-2-hydroxy-3-phenyl propionic acid ethyl ester], in the experiment on cyclooxygenase, the “decrease in synthesis of the cyclooxygenase product 6-ketoprostaglandin F1α” value is listed as “not observed”, the “decrease in synthesis of the cyclooxygenase product HHT” value is listed as “not observed”, the “decrease in synthesis of the cyclooxygenase product prostaglandin D2” value was “not observed” and the “decrease in synthesis of the cyclooxygenase product thromboxane B2” value is on record as “not observed”. Further, at 5-lipoxygenase, the “decrease in the production of 5-HETE” value was “significant and specific decrease”; the “decrease in the production of leukotriene B4” value is “significant and specific decrease”.
